According to ChEMBL document CHEMBL1629592, “Real-time monitoring of human enterovirus (HEV)-infected cells and anti-HEV 3C protease potency by fluorescence resonance energy transfer” (Antimicrob Agents Chemother, 2009):

How the values were obtained:
Type in all cases: functional, organism-based
[1] = system: Enterovirus; experiment: Antiviral activity against Human enterovirus Echo9 infected in Vero cells after 4 to 7 days by plaque reduction assay
[2] = system: Enterovirus; experiment: Antiviral activity against Human enterovirus EV71 infected in Vero cells after 4 to 7 days by plaque reduction assay
[3] = system: Enterovirus; experiment: Antiviral activity against Human enterovirus CVB2 infected in Vero cells after 4 to 7 days by plaque reduction assay
[4] = system: Enterovirus; experiment: Antiviral activity against Human enterovirus CVA16 infected in Vero cells after 4 to 7 days by plaque reduction assay
[5] = system: Enterovirus; experiment: Antiviral activity against Human enterovirus CVB1 infected in human HeLa cells after 2 to 4 days by formazan dye reduction assay
[6] = system: Enterovirus; experiment: Antiviral activity against Human enterovirus CVA16 infected in human HeLa cells after 2 to 4 days by formazan dye reduction assay
[7] = system: Enterovirus; experiment: Antiviral activity against Human enterovirus EV71 infected in human HeLa cells after 2 to 4 days by formazan dye reduction assay
[8] = system: Enterovirus; experiment: Antiviral activity against Human enterovirus CVB4 infected in human HeLa cells after 2 to 4 days by formazan dye reduction assay
[9] = system: Enterovirus; experiment: Antiviral activity against Human enterovirus CVB2 infected in human HeLa-G3CwtR cells after 36 to 48 hrs by FRET assay
[10] = system: Enterovirus; experiment: Antiviral activity against Human enterovirus EV71 infected in human HeLa-G3CwtR cells after 36 to 48 hrs by FRET assay
[11] = system: Enterovirus; experiment: Antiviral activity against Human enterovirus CVB4 infected in Vero cells after 4 to 7 days by plaque reduction assay
[12] = system: Enterovirus; experiment: Antiviral activity against Human enterovirus CVB1 infected in human HeLa-G3CwtR cells after 36 to 48 hrs by FRET assay
[13] = system: Enterovirus; experiment: Antiviral activity against Human enterovirus Echo9 infected in human HeLa-G3CwtR cells after 36 to 48 hrs by FRET assay
[14] = system: Enterovirus; experiment: Antiviral activity against Human enterovirus CVB1 infected in Vero cells after 4 to 7 days by plaque reduction assay
[15] = system: Enterovirus; experiment: Antiviral activity against Human enterovirus CVB2 infected in human HeLa cells after 2 to 4 days by formazan dye reduction assay
[16] = system: Enterovirus; experiment: Antiviral activity against Human enterovirus CVB4 infected in human HeLa-G3CwtR cells after 36 to 48 hrs by FRET assay
[17] = system: Enterovirus; experiment: Antiviral activity against Human enterovirus Echo9 infected in human HeLa cells after 2 to 4 days by formazan dye reduction assay
[18] = system: Enterovirus; experiment: Antiviral activity against Human enterovirus CVA16 infected in human HeLa-G3CwtR cells after 36 to 48 hrs by FRET assay

SMILES: CCOC(=O)/C=C/[C@H](C[C@@H]1CCNC1=O)NC(=O)[C@@H](CC(=O)[C@@H](NC(=O)c1cc(C)on1)C(C)C)Cc1ccc(F)cc1 [RUPINTRIVIR]
- EC50 [1]: 0.481 µM
- EC50 [2]: 0.791 µM
- EC50 [3]: 0.982 µM
- EC50 [4]: 0.419 µM
- EC50 [5]: 1.25 µM
- EC50 [6]: 0.27 µM
- EC50 [7]: 0.561 µM
- EC50 [8]: 0.372 µM
- EC50 [9]: 0.857 µM
- EC50 [10]: 0.781 µM
- EC50 [11]: 0.843 µM
- EC50 [12]: 1.64 µM
- EC50 [13]: 0.434 µM
- EC50 [14]: 1.73 µM
- EC50 [15]: 0.783 µM
- EC50 [16]: 0.877 µM
- EC50 [17]: 0.36 µM
- EC50 [18]: 0.331 µM
